Experimental data as given in ChEMBL document CHEMBL1126116, “Synthesis and antibronchospastic activity of 8-alkoxy- and 8-(alkylamino)imidazo[1,2-a]pyrazines” (J Med Chem, 1992).

Key:
[1] = Compound was tested for it's acute toxicity in mice when given orally.; format: organism-based; details: mouse, in vivo, po
Mus musculus [2] = test: Locomotor activity (no. light beam crossings in 50 min) in mice by intravenous dose at 166 umol/kg; format: functional
Mus musculus [3] = test: Locomotor activity (no. light beam crossings in 50 min) in mice by intravenous dose at 55 umol/kg; format: functional
Heart phosphodiesterase = Heart phosphodiesterase (Bos taurus, UniProt Q01061+P14100+E1BN64); test: Inhibition of bovine heart phosphodiesterase; format: protein assay
Rattus norvegicus [4] = species on record: Rattus norvegicus; test: (§1) Inhibition of carbachol induced tracheal contraction; format: functional; details: Trachea, read-out: ED50 (the source's name)
Rattus norvegicus [5] = species on record: Rattus norvegicus; test: Inhibition of spontaneous contraction of isolated rat uterus; format: functional; details: read-out: ED50 (the source's name)
[6] = Compound was tested for its acute toxicity in mice when given orally.; format: organism-based; details: mouse, in vivo, po
Cavia porcellus = species on record: Cavia porcellus; test: as §1; format: functional; details: Trachea, read-out: ED50 (the source's name)

SMILES	LD50 [1]	Activity (Mus musculus [2])	Activity (Mus musculus [3])	IC50 (Heart phosphodiesterase)	EC50 (Rattus norvegicus [4])	EC50 (Rattus norvegicus [5])	LD50 [6]	EC50 (Cavia porcellus)
CNc1nc(Br)cn2ccnc12	2200 µmol/kg	-83%	-75%	27 µM	24 µM	160 µM		
CNc1nccn2c(Br)cnc12		-57%	-25%	337 µM		100 µM	4200 µmol/kg	97 µM
CCNc1nc(Br)cn2ccnc12	2900 µmol/kg	-73%	-13%	81 µM	65 µM	130 µM		
CNc1nc(Br)cn2cc(C#N)nc12	500 µmol/kg		-64%	70 µM	2 µM	2 µM		
Nc1nc(Br)cn2ccnc12	1300 µmol/kg	-83%	-53%	267 µM	93 µM	300 µM		
Cn1c(=O)c2nc[nH]c2n(C)c1=O.O [THEOPHYLLINE]	1900 µmol/kg	170%	130%	92 µM	920 µM	900 µM		
